In patent US11612163B2, “Stabilization of whole blood samples” (The General Hospital Corporation, priority 2014, dated 2023):
Entries after “also recorded” stand apart in the source; their conditions may differ.

What was measured:
Format in all cases: cell-based, human
[1] = test system: neutrophils; assay: Apoptosis/necrosis inhibitors as preservatives of isolated neutrophils
Description: Evaluation of apoptosis and necrosis inhibitors as neutrophil preservatives. Neutrophils were isolated by negative selection from healthy donor whole blood using the recommended protocol and reagents from the Human Neutrophil Enrichment Kit (StemCell Technologies; Vancouver, British Columbia, Canada). Yield was determined by counting particles from 8-30 μm in diameter using a Coulter Counter Z1 (Beckman Coulter; Brea, Calif.). Neutrophils were stored in IMDM+20% FBS and were either untreated (control) or treated with 1.25 μL/mL DMSO (Sigma-Aldrich; St. Louis, Mo.), 5 μM Q-VD-OPh (Apex Bio; Houston, Tex.), 50 μM Necrostatin-1 (Cayman Chemical; Ann Arbor, Mich.), or 50 μM Boc-D-FMK Apex Bio; Houston, Tex.). Matched samples were processed immediately after isolation and after 24, 48, 72, and 96 hours of storage at 21° C. Samples were stained with R-phycoerythrin-conjugated Annexin V, SYTOX Green, Hoechst 33342 (all Life Technologies; Carlsbad, Calif.), and allophycocyanin-conjugated CD45 (Huntington Valley) and imaged using an ImageStream^X Mk. II Imaging Flow Cytometer (Amnis Corporation; Seattle, Wash.).

[2] = test system: neutrophils; assay: Neutrophil migration toward fMLP gradient (microfluidic device)
Description: To determine whether neutrophils stored under these conditions were still capable of migrating toward an fMLP gradient, we utilized a microfluidic device previously developed for this purpose. Briefly, fMLP, a neutrophil chemoattractant, is added to two outer chambers. The outer chambers are connected to an inner chamber through a series of channels, creating a gradient. The inner chamber was then filled with neutrophils. Freshly isolated neutrophils were immediately evaluated to establish a time 0 migratory response, then the preserved neutrophils were examined after 72 and 96 h ambient storage for comparison.

[3] = test system: platelets; assay: Platelet activation surface markers by imaging flow cytometry; conditions: dosages 0.01-0.5 ug/mL, 20 min at 4 or 22° C.
Description: Platelet inhibitors used include: Tirofiban (Sigma), Eptifibatide (Tocris), Clopidogrel (Sigma), KF38789 (Tocris). In all experimental conditions that involved treatment with platelet inhibitors (e.g., tirofiban, eptifibatide, etc.), these compounds were added to blood samples and mixed by gentle rocking for 10 minutes before the sample was processed for other assays or storage. The addition of EDTA, unless otherwise stated, occurred 15 minutes prior to the assay (i.e., EDTA was not present during sample storage).
Platelet activation and cell viability were determined using the Image Stream Mark II imaging flow cytometer (Amnis Corporation) equipped with a 40× objective and the 405, 488, 642 nm lasers. For the platelet activation panel, 1 μl of whole blood was combined with PBS and fluorescently labeled antibodies as follows; Pacific Blue conjugated CD41 (1:150; clone HIP8; BioLegend), FITC conjugated PAC-1 (1:10; clone PAC-1 (RUO (GMP)); BD Pharmingen), PE conjugated CD62P (1:100; clone AK-4; BD Pharmingen), APC conjugated CD63 (1:10; clone H5C6; Biolegend), PE/Cy7 conjugated CD45 (1:100; clone HI30; Abcam). […]

[4] = test system: neutrophil elastase; assay: Quantification of neutrophil elastase (NETosis); conditions: fresh whole blood stimulated, positive control for NETs, n=7
Description: Blood samples were mixed gently, warmed to 37° C. for four hours for the release of NETs contents into the plasma, and diluted with PBS to a final blood volume fraction of 25% before centrifugation at 2000×g for 5 minutes. The supernatant was then carefully transferred to a new centrifuge tube and stored at −80° C. for further processing. The level of neutrophil elastase was quantified using the Neutrophil Elastase Activity Assay Kit (Cayman Chemical Company) according to manufacturer's protocol, using a SpectraMax M5 spectrometer (Molecular Devices). As a positive control for NETosis, phorbol myristate acetate (100 nM) was added to fresh whole blood prior to incubation.

Compound: CC(C)[C@H](NC(=O)c1ccc2ccccc2n1)C(=O)N[C@@H](CC(=O)O)C(=O)COc1c(F)cccc1F [Q-VD-OPh, (3S)-5-(2,6-difluorophenoxy)-3-[[(2S)-3-methyl-2-(quinoline-2-carbonylamino)butanoyl]amino]-4-oxopentanoic acid]
- CD45 biomarker expression of neutrophils ([1]; 5 μM, 96 h ambient storage): effectively preserved CD45 biomarker expression
- apoptosis inhibition in neutrophils ([1]; 5 μM, IMDM+20% FBS, ambient storage up to 96 h): highly effective at apoptosis inhibition
- stability of treated neutrophils under ambient storage ([1]; ambient storage conditions): 72 to 96 h
- migratory response to fMLP ([2]; after 72 h ambient storage, vs freshly isolated neutrophils): comparable to that of the freshly isolated neutrophils; also recorded: nearly indistinguishable from the migratory response of the freshly isolated neutrophils
- migratory speed toward fMLP gradient ([2]; after ambient storage, vs fresh neutrophils): identical to the fresh neutrophils; also recorded: maintained comparable speed to freshly isolated neutrophils

Compound: CCCCS(=O)(=O)N[C@@H](Cc1ccc(OCCCCC2CCNCC2)cc1)C(=O)O [Tirofiban]
- platelet activation (PAC-1, CD62/p-selectin) of cold treated platelets [3]: minimally activated

Compound: CCCCCCCCCCCCCC(=O)O[C@@H]1[C@@H](C)[C@@]2(O)[C@@H](C=C(CO)C[C@]3(O)C(=O)C(C)=C[C@@H]23)[C@@H]2C(C)(C)[C@]12OC(C)=O [phorbol myristate acetate]
- neutrophil elastase level [4]: 81.4±64.4 mU/mL
